Experimental findings from patent US12508273B2, “Beta-1,3′-galactosyllactose for the treatment of gut barrier function diseases” (N.V. Nutricia, priority 2019, dated 2025) are described below.

What all share (assay type): cell-based, human
One data set relates to Caco-2 cells. Briefly: Viability of Caco-2 cells exposed to DON. Conditions: DON 4.2 M in complete cell medium, apical and basolateral. On the procedure:
(§1) Caco-2 cell monolayers were thus grown in a transwell system, which is a model for intestinal barrier function. The monolayers were pretreated for 24 h with different GLs, including beta3′-GL, alpha3′-GL, beta4′-GL and beta6′-GL in a concentration of 0.75 wt % of the GL, before being exposed to the fungal toxin deoxynivalenol (DON), which is a trigger and model compound to impair intestinal barrier. DON was diluted to a final concentration of […] in complete cell medium and added to the apical side as well as to the basolateral side of the transwell inserts. […] Incubation with DON was 24 h.

Data set [1] deals with IL-8 (CXCL8) release by Caco-2 cells. In words: DON-induced IL-8 (CXCL8) release by Caco-2 cells, ELISA. The following applies: DON alone 4.2 M, 24 h. On the procedure: as §1
(§2) Measurements of the transepithelial electrical resistance (TEER) and lucifer yellow (LY) permeability were conducted to investigate barrier integrity. […] Results are expressed as a percentage of the initial value. For paracellular tracer flux assay the membrane impermeable lucifer yellow (LY) (Sigma, St Luis, MO, USA) was added in a concentration of 16 μg/ml to the apical compartment in the transwell plate for 4 h, and the paracellular flux was determined by measuring the fluorescence intensity in the basolateral compartment with a spectrophotofluorimeter (FLUOstar Optima, BMG Labtech, Offenburg, Germany) set at excitation and emission wavelengths of 410 and 520 nm, respectively. […]
In general terms: In an ELISA, binding on a coated surface is turned into a signal by an enzyme label.

In data set [2] the test system is Caco-2 cell monolayer. In words: Transepithelial electrical resistance (TEER) of Caco-2 monolayers after DON-induced impairment. On the procedure: (§3) Caco-2 cells were used according to established methods. In brief: cells were cultured in Dulbecco's modified Eagle medium (DMEM) and seeded at a density of 0.3×10^5 cells into 0.3 cm^2 high pore density (0.4 μm) inserts with a polyethylene terephthalate membrane (BD Biosciences, Franklin Lakes, NJ, USA) placed in a 24-well plate. The Caco-2 cells were maintained in a humidified atmosphere of 95 air and 5% CO2 at 37° C. After 17-19 days of culturing, a confluent monolayer was obtained with a mean Transepithelial electrical resistance (TEER) exceeding 400 Ωcm^2 measured by a Millicell-Electrical Resistance System voltohm-meter (Millipore, Temecula, CA, USA).
as §1
Measurements of the transepithelial electrical resistance (TEER) and lucifer yellow (LY) permeability were conducted to investigate barrier integrity. For TEER measurements a Millicel-ERS voltohmmeter connected to a pair of chopsticks electrodes was used to measure the TEER values. Results are expressed as a percentage of the initial value. For paracellular tracer flux assay the membrane impermeable lucifer yellow (LY) (Sigma, St Luis, MO, USA) was added in a concentration of 16 μg/ml to the apical compartment in the transwell plate for 4 h, and the paracellular flux was determined by measuring the fluorescence intensity in the basolateral compartment with a spectrophotofluorimeter (FLUOstar Optima, BMG Labtech, Offenburg, Germany) set at excitation and emission wavelengths of 410 and 520 nm, respectively. Release of interleukin-8 (IL-8 or CXCL8), which is a typical marker for inflammation, was quantified in the medium of the apical side and the basolateral side of the Caco-2 transwell inserts in response to the treatments. CXCL8 concentrations were measured by using the human IL-8 ELISA assay (BD Biosciences, Pharmingem, San Diego, CA, USA) according to manufacturer's instructions. For more details on materials and methods see Akbari et al, 2016, Eur J Nutr. 56(5):1919-1930.
Barrier function experiments were performed in a similar way as in example 2 using the following concentrations of Vivinal GOS (VGOS): 0 (Control), 0.25 wt % (VGOS 0.25), 0.5 wt % (VGOS 0.5), 0.75 wt % (VGOS 0.75), 1 wt % (VGOS 1), 1.5 wt % (VGOS 1.5) and 2 wt % (VGOS 2). For TOS concentrations of 0.25 wt % (TOS 0.25) and 0.5 wt % (TOS 0.5) were tested.

Data set [3] has as its system Caco-2 cell monolayer. Briefly: Lucifer yellow (LY) paracellular flux across Caco-2 monolayers after DON-induced impairment. Conditions: GL 0.75 wt %, 24 h pretreatment, then DON 4.2 M 24 h; FIGS. 1C, 1D. The procedure: as §3, with “USA). […]” for “USA).”
as §2

Setting [4] is: GL 0.75 wt %, 24 h pretreatment, then DON 4.2 M 24 h.

Regarding `CC1=C[C@H]2O[C@@H]3[C@H](O)C[C@](C)([C@@]2(CO)[C@H](O)C1=O)[C@]31CO1` [DON, deoxynivalenol], the “viability of the Caco-2 cells” value in the data set with Caco-2 cells is on record as “did not affect the viability”. For the same compound, the “CXCL8 (IL-8) release” value in data set [1] is “increased CXCL8 (IL-8) release”.

Take `OC[C@H]1O[C@H](O[C@H]2[C@@H](O)[C@@H](CO)O[C@@H](O[C@H]3[C@H](O)[C@@H](O)C(O)O[C@@H]3CO)[C@@H]2O)[C@H](O)[C@@H](O)[C@H]1O` (stereo partly drawn) [alpha3′-GL, Gal (alpha 1-3)-Gal (beta 1-4)-Glc]: the “effect on DON-induced loss of epithelial barrier integrity (TEER and LY flux)” value (“effect on DON-induced loss” for short) in the data set on Caco-2 cell monolayer [2] (setting [4]) is reported as “did not prevent the DON-induced disrupted intestinal barrier”.

`OC[C@H]1O[C@@H](O[C@@H]2[C@H](O)[C@@H](O)[C@H](O[C@H]3[C@H](O)[C@@H](O)C(O)O[C@@H]3CO)O[C@@H]2CO)[C@H](O)[C@@H](O)[C@H]1O` (stereo partly drawn) [beta4′-GL, Gal (beta 1-4)-Gal (beta 1-4)-Glc]: the “effect on DON-induced loss” value in the data set with Caco-2 cell monolayer [2] (setting [4]) is “did not show a significant effect”.

Consider `OC[C@H]1O[C@@H](OC[C@H]2O[C@@H](O[C@H]3[C@H](O)[C@@H](O)C(O)O[C@@H]3CO)[C@H](O)[C@@H](O)[C@H]2O)[C@H](O)[C@@H](O)[C@H]1O` (stereo partly drawn) [beta6′-GL, Gal (beta 1-6)-Gal (beta 1-4)-Glc], for which the “effect on DON-induced loss” value with Caco-2 cell monolayer [2] (setting [4]) is recorded as “did not show a significant effect”.

For “Gal (beta 1-3)-Gal (beta 1-4)-Glc [beta3′-GL]”, the “LY flux after DON challenge” value in the data set on Caco-2 cell monolayer [3] is “reduction in the DON-affected LY flux”. In the data set with Caco-2 cell monolayer [2] (Caco-2, DON challenge, beta3′-GL as part of TOS), the “concentration of beta3′-GL in TOS at which the barrier effect is observed” value is recorded as “lower than 0.17 wt %”. In addition, the “effect on DON-induced loss” value with Caco-2 cell monolayer [2] (setting [4]) is given as “prevented the DON-induced loss of epithelial barrier integrity”; in the data set on Caco-2 cell monolayer [2] (GL 0.75 wt %, 24 h pretreatment, then DON 4.2 M 24 h, listed as beta1,3′-galactosyllactose) it was “prevented loss of epithelial barrier integrity to a much higher extent than other galactosyl-lactoses”. Further, in the data set on Caco-2 cell monolayer [2] (GL 0.75 wt %, 24 h pretreatment, then DON 4.2 M 24 h, FIGS. 1A, 1B), the “TEER after DON challenge” value is “increased TEER values”.
